Laboratory results as given in PMC12687421, “Characterisation of an allosteric site in PLCγ enzymes and implications for development of their specific inhibitors” (Biochemical Journal, 2025).

Target: T1, hPLCγ1 (Homo sapiens, UniProt P19174, I813T)
T1 construct: specific activities of PLCγ1^wt and PLCγ2^wt full-length proteins; made in house; host or cells: Escherichia coli T7 Express lysY/Iq
T1 sequence (P19174 1-1291 isoform P19174-2 I813T): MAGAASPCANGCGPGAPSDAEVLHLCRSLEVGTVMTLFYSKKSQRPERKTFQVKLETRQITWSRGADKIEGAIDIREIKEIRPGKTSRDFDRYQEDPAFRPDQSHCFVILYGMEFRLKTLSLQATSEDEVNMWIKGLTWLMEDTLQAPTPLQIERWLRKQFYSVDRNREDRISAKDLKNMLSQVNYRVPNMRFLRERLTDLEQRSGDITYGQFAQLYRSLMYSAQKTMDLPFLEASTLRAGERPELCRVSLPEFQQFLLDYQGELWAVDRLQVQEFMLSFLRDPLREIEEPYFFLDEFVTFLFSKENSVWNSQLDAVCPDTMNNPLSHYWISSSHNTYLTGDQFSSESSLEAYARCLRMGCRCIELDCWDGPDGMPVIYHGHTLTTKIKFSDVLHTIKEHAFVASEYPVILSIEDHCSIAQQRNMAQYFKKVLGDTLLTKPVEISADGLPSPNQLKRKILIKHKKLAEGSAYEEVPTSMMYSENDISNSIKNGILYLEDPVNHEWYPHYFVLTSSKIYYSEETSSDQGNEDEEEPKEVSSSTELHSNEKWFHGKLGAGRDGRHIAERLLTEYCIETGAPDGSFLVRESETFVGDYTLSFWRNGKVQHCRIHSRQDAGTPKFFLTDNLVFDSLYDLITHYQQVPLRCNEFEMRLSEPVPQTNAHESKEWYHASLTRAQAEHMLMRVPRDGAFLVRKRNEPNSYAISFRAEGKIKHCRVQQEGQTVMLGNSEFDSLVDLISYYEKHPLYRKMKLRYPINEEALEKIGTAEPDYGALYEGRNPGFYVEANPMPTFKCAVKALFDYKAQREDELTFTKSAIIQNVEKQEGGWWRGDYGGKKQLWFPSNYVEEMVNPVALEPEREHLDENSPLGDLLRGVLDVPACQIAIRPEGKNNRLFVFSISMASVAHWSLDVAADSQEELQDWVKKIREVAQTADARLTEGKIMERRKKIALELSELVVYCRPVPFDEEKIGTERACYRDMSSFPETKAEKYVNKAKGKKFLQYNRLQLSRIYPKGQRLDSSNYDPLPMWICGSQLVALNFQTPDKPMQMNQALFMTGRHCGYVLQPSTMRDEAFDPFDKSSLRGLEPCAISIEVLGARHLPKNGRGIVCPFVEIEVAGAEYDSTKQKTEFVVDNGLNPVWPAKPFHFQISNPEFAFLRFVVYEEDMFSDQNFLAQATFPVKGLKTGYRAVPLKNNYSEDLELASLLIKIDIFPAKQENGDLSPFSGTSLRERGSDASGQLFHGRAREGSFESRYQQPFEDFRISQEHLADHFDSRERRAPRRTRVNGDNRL
Test: Hydrogen deuterium exchange mass spectrometry (HDX-MS), apo vs 10 µM ADP
Type: binding
Procedure: HDX reactions comparing apo hPLCγ1 to hPLCγ1 incubated with ADP were carried out in a 15 µl reaction volume containing 10 pmol of hPLCγ1 (0.67 µM) and 10 µM of ADP and 1.67% DMSO. The exchange reactions were initiated by the addition of 10.0 µl of D2O buffer (25 mM HEPES pH 7.5, 150 mM NaCl, 2 mM TCEP 92.25% D2O (V/V)) to 5.0 µl of protein (final D2O concentration of 61.5%). Reactions proceeded for 3 s at 0°C, 30 s, 300 s and 3000 s at 20°C before being quenched with ice cold acidic quench buffer, resulting in a final concentration of 0.6M guanidine HCl and 0.9% formic acid post quench. All conditions and time points were created and run in independent triplicate. Samples were flash frozen immediately after quenching and stored at -80°C until injected onto the ultra-performance liquid chromatography (UPLC) system for proteolytic cleavage, peptide separation and injection onto a QTOF for mass analysis, described below.
Protein samples were rapidly thawed and injected onto an integrated fluidics system containing a HDx-3 PAL liquid handling robot and climate-controlled (2°C) chromatography system (Trajan), a Waters Acquity UPLC I-Class Series System, as well as an Impact HD QTOF Mass spectrometer (Bruker). The full details of the automated LC system were previously described. The samples were run over an immobilised pepsin column (Affipro; Enzymate Protein Pepsin Column, 2.1 mm X 20 mm) at 200 µl/min for 3 minutes at 2°C. […]
Peptides were identified from the non-deuterated samples of p110α using data-dependent acquisition following tandem MS/MS experiments (0.5 s precursor scan from 150 to 2000 m/z; twelve 0.25 s fragment scans from 150 to 2000 m/z). MS/MS datasets were analysed using FragPipe v18.0 and peptide identification was carried out by using a false discovery-based approach using a database of purified proteins and known contaminants [[35–37]]. […]
HD-Examiner Software (Trajan) was used to automatically calculate the level of deuterium incorporation into each peptide. […] Deuteration levels were calculated using the centroid of the experimental isotope clusters. […]

Nc1ncnc2c1ncn2[C@@H]1O[C@H](COP(=O)(O)OP(=O)(O)O)[C@@H](O)[C@H]1O [ADP]
difference in deuterium exchange (increase in exchange) (amino acids 24–35 in the nPH domain): 4.5–10%
difference in deuterium exchange (protection) (amino acids 330–347, 367–386, 863–882 and 957–973): 4.5–10%
difference in deuterium exchange (protection) (amino acids 481–495): > 10%
